# Test results from PubChem BioAssay AID2060508 (Molecular Pharmacology Branch, DTP, NCI, 2025).
# Test system: 454973-116-R2-J3-PDC spheroids, viability, % test/control
# Assay: Anticancer human tumor 454973-116-R2-J3-PDC patient-derived pancreatic carcinoma cell line growth inhibition [GQUAD]
# Settings: second compound 0.316 µM; first compound 0.316 µM; active compounds read low; spheroids with HUVEC and MSC
# Outline: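 Multi-cell-type spheroids of tumor cells with HUVEC and mesenchymal stem cells, treated with drug combinations. Concentrations descend in half-log steps from near clinical Cmax, or from 10 microM where Cmax is unknown; viability read-out.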
# 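Also: spheroids exposed to compounds for seven days; 100% = DMSO vehicle control viability.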
row,Compound,"viability, T/C"
1,Cc1cccc(N(C)C(=O)C2C(O)CCN2c2nc(C)cc(C(F)(F)F)c2C#N)c1 (stereo unspecified) + CN(C)c1ccc(Nc2c3ccc(NC(=O)CCN4CCCC4)cc3nc3cc(NC(=O)CCN4CCCC4)ccc23)cc1,97.7%
2,Cn1ncnc1[C@H]1c2n[nH]c(=O)c3cc(F)cc(c23)N[C@@H]1c1ccc(F)cc1 + CN(C)c1ccc(Nc2c3ccc(NC(=O)CCN4CCCC4)cc3nc3cc(NC(=O)CCN4CCCC4)ccc23)cc1,71.6%
3,O=C(c1cc(Cc2n[nH]c(=O)c3ccccc23)ccc1F)N1CCN(C(=O)C2CC2)CC1 + CN(C)c1ccc(Nc2c3ccc(NC(=O)CCN4CCCC4)cc3nc3cc(NC(=O)CCN4CCCC4)ccc23)cc1,93.6%

# Same assay, conditions: second compound 0.316 µM; first compound 1 µM; active compounds read low; spheroids with HUVEC and MSC
row,Compound,"viability, T/C"
1,C=CC(=O)N1CCN(c2nc(=O)n(-c3c(C)ccnc3C(C)C)c3nc(-c4c(O)cccc4F)c(F)cc23)C(C)C1 (stereo unspecified) + CN(C)c1ccc(Nc2c3ccc(NC(=O)CCN4CCCC4)cc3nc3cc(NC(=O)CCN4CCCC4)ccc23)cc1,110%
2,CC1COCCN1c1cc(C2(O)CC3CCC(C2)O3)c2cnn(-c3ccn[nH]3)c2n1 (stereo unspecified) + CN(C)c1ccc(Nc2c3ccc(NC(=O)CCN4CCCC4)cc3nc3cc(NC(=O)CCN4CCCC4)ccc23)cc1,21%
3,Cc1cccc(N(C)C(=O)C2C(O)CCN2c2nc(C)cc(C(F)(F)F)c2C#N)c1 (stereo unspecified) + CN(C)c1ccc(Nc2c3ccc(NC(=O)CCN4CCCC4)cc3nc3cc(NC(=O)CCN4CCCC4)ccc23)cc1,103%
4,O=C(c1cc(Cc2n[nH]c(=O)c3ccccc23)ccc1F)N1CCN(C(=O)C2CC2)CC1 + CN(C)c1ccc(Nc2c3ccc(NC(=O)CCN4CCCC4)cc3nc3cc(NC(=O)CCN4CCCC4)ccc23)cc1,88.2%

# Same assay, conditions: second compound 0.316 µM; first compound 3.16 µM; active compounds read low; spheroids with HUVEC and MSC
row,Compound,"viability, T/C"
1,C=CC(=O)N1CCN(c2nc(=O)n(-c3c(C)ccnc3C(C)C)c3nc(-c4c(O)cccc4F)c(F)cc23)C(C)C1 (stereo unspecified) + CN(C)c1ccc(Nc2c3ccc(NC(=O)CCN4CCCC4)cc3nc3cc(NC(=O)CCN4CCCC4)ccc23)cc1,99.5%
2,CC1COCCN1c1cc(C2(O)CC3CCC(C2)O3)c2cnn(-c3ccn[nH]3)c2n1 (stereo unspecified) + CN(C)c1ccc(Nc2c3ccc(NC(=O)CCN4CCCC4)cc3nc3cc(NC(=O)CCN4CCCC4)ccc23)cc1,23%
3,Cc1cccc(N(C)C(=O)C2C(O)CCN2c2nc(C)cc(C(F)(F)F)c2C#N)c1 (stereo unspecified) + CN(C)c1ccc(Nc2c3ccc(NC(=O)CCN4CCCC4)cc3nc3cc(NC(=O)CCN4CCCC4)ccc23)cc1,93.9%
4,O=C(c1cc(Cc2n[nH]c(=O)c3ccccc23)ccc1F)N1CCN(C(=O)C2CC2)CC1 + CN(C)c1ccc(Nc2c3ccc(NC(=O)CCN4CCCC4)cc3nc3cc(NC(=O)CCN4CCCC4)ccc23)cc1,82.6%

# Same assay, conditions: second compound 0.316 µM; first compound 10 µM; active compounds read low; spheroids with HUVEC and MSC
row,Compound,"viability, T/C"
1,C=CC(=O)N1CCN(c2nc(=O)n(-c3c(C)ccnc3C(C)C)c3nc(-c4c(O)cccc4F)c(F)cc23)C(C)C1 (stereo unspecified) + CN(C)c1ccc(Nc2c3ccc(NC(=O)CCN4CCCC4)cc3nc3cc(NC(=O)CCN4CCCC4)ccc23)cc1,111%
2,CC1COCCN1c1cc(C2(O)CC3CCC(C2)O3)c2cnn(-c3ccn[nH]3)c2n1 (stereo unspecified) + CN(C)c1ccc(Nc2c3ccc(NC(=O)CCN4CCCC4)cc3nc3cc(NC(=O)CCN4CCCC4)ccc23)cc1,13.1%
3,Cc1cccc(N(C)C(=O)C2C(O)CCN2c2nc(C)cc(C(F)(F)F)c2C#N)c1 (stereo unspecified) + CN(C)c1ccc(Nc2c3ccc(NC(=O)CCN4CCCC4)cc3nc3cc(NC(=O)CCN4CCCC4)ccc23)cc1,93.8%
4,O=C(c1cc(Cc2n[nH]c(=O)c3ccccc23)ccc1F)N1CCN(C(=O)C2CC2)CC1 + CN(C)c1ccc(Nc2c3ccc(NC(=O)CCN4CCCC4)cc3nc3cc(NC(=O)CCN4CCCC4)ccc23)cc1,65.1%

# Same assay, conditions: second compound 1 µM; first compound 0.000999 µM; active compounds read low; spheroids with HUVEC and MSC
row,Compound,"viability, T/C"
1,Cn1ncnc1[C@H]1c2n[nH]c(=O)c3cc(F)cc(c23)N[C@@H]1c1ccc(F)cc1 + CN(C)c1ccc(Nc2c3ccc(NC(=O)CCN4CCCC4)cc3nc3cc(NC(=O)CCN4CCCC4)ccc23)cc1,90%

# Same assay, conditions: second compound 1 µM; first compound 0.00316 µM; active compounds read low; spheroids with HUVEC and MSC
row,Compound,"viability, T/C"
1,Cn1ncnc1[C@H]1c2n[nH]c(=O)c3cc(F)cc(c23)N[C@@H]1c1ccc(F)cc1 + CN(C)c1ccc(Nc2c3ccc(NC(=O)CCN4CCCC4)cc3nc3cc(NC(=O)CCN4CCCC4)ccc23)cc1,84.7%

# Same assay, conditions: second compound 1 µM; first compound 0.00999 µM; active compounds read low; spheroids with HUVEC and MSC
row,Compound,"viability, T/C"
1,Cn1ncnc1[C@H]1c2n[nH]c(=O)c3cc(F)cc(c23)N[C@@H]1c1ccc(F)cc1 + CN(C)c1ccc(Nc2c3ccc(NC(=O)CCN4CCCC4)cc3nc3cc(NC(=O)CCN4CCCC4)ccc23)cc1,90.8%

# Same assay, conditions: second compound 1 µM; first compound 0.0316 µM; active compounds read low; spheroids with HUVEC and MSC
row,Compound,"viability, T/C"
1,C=CC(=O)N1CCN(c2nc(=O)n(-c3c(C)ccnc3C(C)C)c3nc(-c4c(O)cccc4F)c(F)cc23)C(C)C1 (stereo unspecified) + CN(C)c1ccc(Nc2c3ccc(NC(=O)CCN4CCCC4)cc3nc3cc(NC(=O)CCN4CCCC4)ccc23)cc1,97.3%
2,CC1COCCN1c1cc(C2(O)CC3CCC(C2)O3)c2cnn(-c3ccn[nH]3)c2n1 (stereo unspecified) + CN(C)c1ccc(Nc2c3ccc(NC(=O)CCN4CCCC4)cc3nc3cc(NC(=O)CCN4CCCC4)ccc23)cc1,95.3%
3,Cc1cccc(N(C)C(=O)C2C(O)CCN2c2nc(C)cc(C(F)(F)F)c2C#N)c1 (stereo unspecified) + CN(C)c1ccc(Nc2c3ccc(NC(=O)CCN4CCCC4)cc3nc3cc(NC(=O)CCN4CCCC4)ccc23)cc1,93.4%
4,Cn1ncnc1[C@H]1c2n[nH]c(=O)c3cc(F)cc(c23)N[C@@H]1c1ccc(F)cc1 + CN(C)c1ccc(Nc2c3ccc(NC(=O)CCN4CCCC4)cc3nc3cc(NC(=O)CCN4CCCC4)ccc23)cc1,66.4%
5,O=C(c1cc(Cc2n[nH]c(=O)c3ccccc23)ccc1F)N1CCN(C(=O)C2CC2)CC1 + CN(C)c1ccc(Nc2c3ccc(NC(=O)CCN4CCCC4)cc3nc3cc(NC(=O)CCN4CCCC4)ccc23)cc1,88.5%

# Same assay, conditions: second compound 1 µM; first compound 0.0999 µM; active compounds read low; spheroids with HUVEC and MSC
row,Compound,"viability, T/C"
1,Cn1ncnc1[C@H]1c2n[nH]c(=O)c3cc(F)cc(c23)N[C@@H]1c1ccc(F)cc1 + CN(C)c1ccc(Nc2c3ccc(NC(=O)CCN4CCCC4)cc3nc3cc(NC(=O)CCN4CCCC4)ccc23)cc1,79.8%

# Same assay, conditions: second compound 1 µM; first compound 0.1 µM; active compounds read low; spheroids with HUVEC and MSC
row,Compound,"viability, T/C"
1,C=CC(=O)N1CCN(c2nc(=O)n(-c3c(C)ccnc3C(C)C)c3nc(-c4c(O)cccc4F)c(F)cc23)C(C)C1 (stereo unspecified) + CN(C)c1ccc(Nc2c3ccc(NC(=O)CCN4CCCC4)cc3nc3cc(NC(=O)CCN4CCCC4)ccc23)cc1,91.8%
2,CC1COCCN1c1cc(C2(O)CC3CCC(C2)O3)c2cnn(-c3ccn[nH]3)c2n1 (stereo unspecified) + CN(C)c1ccc(Nc2c3ccc(NC(=O)CCN4CCCC4)cc3nc3cc(NC(=O)CCN4CCCC4)ccc23)cc1,58.4%
